Columns and labels:
Format in all cases: cell-based
AR = target: T1, AR (Homo sapiens, UniProt P10275, T878A); experiment: In vitro AR degradation activity test in LNCaP cells (ELISA, OD450); settings: for DC50: LNCaP cells, 24 hours; for AR degradation activity, improvement compared to Galeterone: ratio to Galeterone DC50
T1 construct: endogenous in cells; host or cells: LNCaP
T1 sequence (P10275 1-920 T878A): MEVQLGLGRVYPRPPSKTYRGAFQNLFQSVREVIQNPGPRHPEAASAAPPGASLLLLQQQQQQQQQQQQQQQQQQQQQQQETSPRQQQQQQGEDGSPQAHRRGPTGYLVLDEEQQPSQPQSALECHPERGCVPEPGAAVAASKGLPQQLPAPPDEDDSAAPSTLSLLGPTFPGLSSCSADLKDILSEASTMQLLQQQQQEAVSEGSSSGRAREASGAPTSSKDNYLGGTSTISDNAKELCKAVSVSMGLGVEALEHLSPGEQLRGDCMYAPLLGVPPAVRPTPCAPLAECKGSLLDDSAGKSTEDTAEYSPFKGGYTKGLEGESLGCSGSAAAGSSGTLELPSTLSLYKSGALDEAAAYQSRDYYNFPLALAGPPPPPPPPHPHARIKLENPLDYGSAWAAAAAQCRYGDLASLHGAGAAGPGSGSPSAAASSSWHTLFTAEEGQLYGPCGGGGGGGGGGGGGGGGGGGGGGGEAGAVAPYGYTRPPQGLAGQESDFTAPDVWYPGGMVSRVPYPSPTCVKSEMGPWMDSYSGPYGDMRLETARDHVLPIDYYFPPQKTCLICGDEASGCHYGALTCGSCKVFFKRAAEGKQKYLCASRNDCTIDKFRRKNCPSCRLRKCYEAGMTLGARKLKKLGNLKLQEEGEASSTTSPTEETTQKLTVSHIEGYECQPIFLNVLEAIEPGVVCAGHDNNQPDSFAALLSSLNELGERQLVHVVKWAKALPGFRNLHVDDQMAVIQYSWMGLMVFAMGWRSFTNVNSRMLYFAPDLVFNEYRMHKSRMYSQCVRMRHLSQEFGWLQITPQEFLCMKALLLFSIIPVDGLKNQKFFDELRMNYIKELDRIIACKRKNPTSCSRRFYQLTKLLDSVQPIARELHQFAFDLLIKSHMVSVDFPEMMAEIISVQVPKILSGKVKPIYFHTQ
Outline: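 AR in protein-normalized lysates was quantified by sandwich ELISA with HRP detection at OD450. Degradation rate (%) was computed from OD450 max/min controls, and IC50 was derived from it.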

ACE2 = ACE2 mRNA expression in A549 cells (qPCR)
TMPRSS2 = TMPRSS2 mRNA expression in A549 cells (qPCR)
[1] = 10 μM, 1 nM DHT, 48 h, Blank = 1

In the case of `Cc1cn(C2=CCC3C4CC=C5C[C@@H](NC(=O)c6ccc(F)cc6F)CC[C@]5(C)C4CC[C@]23C)cn1` (stereo partly drawn) [Compound 37, N-((3S,10R,13S)-17-(4-methyl-1H-imidazol-1-yl)-10,13-dimethyl-2,3,4,7,8,9,10,11,12,13,14,15-dodecahydro-1H-cyclopenta[a]phenanthren-3-yl)-2,4-difluorobenzamide], the DC50 (AR) was 1680 nM and the “AR degradation activity, improvement compared to Galeterone” value (AR) was 6.2 times.
`Cc1cn(C2=CCC3C4CC=C5C[C@@H](NC(=O)c6ccc(F)cc6)CC[C@]5(C)C4CC[C@]23C)cn1` (stereo partly drawn) [Compound 33, N-((3S,10R,13S)-17-(4-methyl-1H-imidazol-1-yl)-10,13-dimethyl-2,3,4,7,8,9,10,11,12,13,14,15-dodecahydro-1H-cyclopenta[a]phenanthren-3-yl)-4-fluorobenzamide] was tested, and the DC50 (AR) was 1280 nM and the “AR degradation activity, improvement compared to Galeterone” value (AR) was 8.1 times.
With `Cc1cn(C2=CCC3C4CC=C5C[C@@H](NC(=O)c6ccc(S(C)(=O)=O)cc6)CC[C@]5(C)C4CC[C@]23C)cn1` (stereo partly drawn) [Compound 35, N-((3S,10R,13S)-17-(4-methyl-1H-imidazol-1-yl)-10,13-dimethyl-2,3,4,7,8,9,10,11,12,13,14,15-dodecahydro-1H-cyclopenta[a]phenanthren-3-yl)-4-(methylsulfonyl)benzamide] the DC50 (AR) was 1560 nM, the “AR degradation activity, improvement compared to Galeterone” value (AR) was 6.7 times and the “Expression of ACE2 protein, in words” value (ACE2) was “significantly downregulate”. For the same compound, the “ACE2 mRNA level” value (ACE2; [1]) was 0.102, the “Expression of TMPRSS2 protein, in words” value (TMPRSS2) was “significantly downregulate” and the “TMPRSS2 mRNA level” value (TMPRSS2; [1]) was 0.394.

Reference: US20250073249A1, “STEROID COMPOUND, AND PREPARATION METHOD THEREFOR AND USE THEREOF” (SHANGHAI INSTITUTE OF MATERIA MEDICA, CHINESE ACADEMY OF …, priority 2022, published 2025)
